How the values were obtained:
[1] = target: T1, ITPR1 (Homo sapiens, UniProt Q14643); experiment: NGF-induced intracellular calcium release / ITPR1 activation in NBL cells; format: cell-based; design: endogenous in cells; conditions: NBL cells
[2] = system: RYR-dependent calcium release; experiment: 5HT-induced RYR-dependent cytoplasmic calcium release in NBL cells (Fura2 imaging); format: cell-based, human; conditions: for 5HT-induced cytoplasmic calcium release, effect of ryanodine: 50 μM 5HT
Experimental: Pharmacodynamics—Bioassay of Calcium Release: Fifteen mm glass coverslips (cat #72228 Electron Microscopy Sciences, Hatfield, PA) were coated with poly-D-Lysine (Sigma) followed by Laminin and 1×10^5 cells were seeded on each coverslip. Twenty-four hrs later, cells were transfected with AAV2-ITR, AAV2-V5-Car10, or AAV2-V5-CA10 vectors as previously described. In embodiments wherein AAV2 is not employed, other expression vectors (including viral vectors) are used. Fura-2AM (cat #F1221 ThermoFisher scientific, Waltham, MA) was dissolved in DMSO (50 μg in 50 μl) and 1% pluronic acid-127 (cat #P2443 Sigma, St Louis, MO) as the stock solution. Forty eight hrs after seeding, cells were loaded with 2 μM Fura-2AM dye for 45 min at room temperature in the dark in a standard Ca+2 buffer solution containing: 125 mM NaCl, 2 mM MgCl, 4.5 mM KCl, 10 glucose, 20 mM HEPES, 2 mM CaCl2, pH 7.4.25. Following dye loading, coverslips were washed with Ca^+2 buffer solution. For imaging and ATP stimulation experiments, coverslips were placed in a recording chamber (cat #QR-42LP Warner instruments Hamden, CT) on a Leica DMI6000B microscope, and perfused at room temperature (˜22° C.) with Ca^+2 free buffer solution containing: 125 mM NaCl, 4 mM MgCl, 4.5 mM KCl, 10 mM glucose, 20 mM HEPES, pH 7.4. For the ratiometric imaging of Fura-2AM, the excitation light was filtered through an ultra high-speed wavelength switcher to provide wavelengths of 340 and 384 nm and capture by a high-speed digital camera (Leica DFC365FX). Activation of ITPR1 channels was achieved via application of 1 μM ATP (Sigma, St Louis, MO). Data acquisition and processing was made using the LAXS software. Regions of interest over the field of view were selected and the mean pixels intensity at each frame was measured. Data was plotted as ratio fluorescence intensity versus time and subsequently converted to a relative scale.
It was also determined that 5HT-induced RYR-dependent calcium release in NBL cells is inhibited by ryanodine. […]

[3] = system: ITPR1-mediated cytoplasmic calcium release; experiment: ATP-induced cytoplasmic calcium release in HEK293 cells (Fura-2 imaging); format: cell-based, human
Experimental: Cell culture and transfections: Human neuronal-derived (e.g., NBL), human non-neuronal derived (e.g., HEK293) cells, or dispersed rodent primary DRG cells can be used. HEK293 cells (cat #CRL-1573 ATCC Manassas, VA) were cultured in Dulbecco's modified Eagle's medium (DMEM-Glutamax cat #0566; Invitrogen) supplemented with 10% fetal bovine serum, FBS (cat #16140 ThermoFisher scientific, Waltham, MA) and 1% penicillin/streptomycin (cat #15140 ThermoFisher scientific, Waltham, MA). Cells were seeded in six-well plates at density of 1.0×10^5 cells per well. […]
Pharmacodynamics—Bioassay of Calcium Release: Fifteen mm glass coverslips (cat #72228 Electron Microscopy Sciences, Hatfield, PA) were coated with poly-D-Lysine (Sigma) followed by Laminin and 1×10^5 cells were seeded on each coverslip. […] Regions of interest over the field of view were selected and the mean pixels intensity at each frame was measured. Data was plotted as ratio fluorescence intensity versus time and subsequently converted to a relative scale.
To further examine whether FLAG-CA8-204 (data not shown), V5-Car10 and V5-CA10 overexpression can inhibit ATP-induced calcium release, HEK293 cells were infected with each if these constructs and real-time intracellular calcium concentrations at baseline and in response to ATP stimulation were measured (FIG. 2). […]

[4] = morphine dose vs paw withdrawal latency; format: in vivo, mouse; conditions: approximately 30 minutes after intraperitoneal dosing; 10, 30, and 60 mg/kg
Experimental: Behavioral tests: Thermal and mechanical sensitivity was measured by Hargreaves test and von Frey filament threshold calculations respectively. See, e.g., Boyce-Rustay et al. Methods Mol Biol. 2010; 617:41-55; Hargreaves et al., Pain. 1988; 32(1):77-88; and Chaplan et al., J Neurosci Methods. 1994; 53(1):55-63. Tests were performed in a quiet room with daylight-like illumination. Animals were habituated to the behavioral room and apparatus for at least 60 minutes for 1 week before a blinded investigator collected data. The thermal sensitivity test was performed using an IITC Plantar Analgesia Meter apparatus (IITC Life sciences, Woodland Hills, CA) with a plastic box placed on a glass plate of constant temperature (30° C.). The mouse plantar surface was exposed to a beam of radiant heat to induced paw withdrawal. Baseline latencies were adjusted to 5-9 sec with a maximum of 20 sec as cutoff to prevent potential injury. The latency time in seconds from the onset of the intense light beam to paw withdrawal was defined as the withdrawal latency of the paw. […] The mouse hind paw was pressed with one of a series of von Frey filaments with logarithmically incrementing stiffness (Stoelting Co, Wood Dale, IL) presented perpendicular to the plantar surface of each hind paw for 1-2 seconds, the 50% threshold was determined using the Up- and Down method.

[5] = target: T1, ITPR1; experiment: NGF-induced intracellular calcium release in HEK293 cells; format: cell-based; design: endogenous in cells; host or cells: HEK293 (ATCC CRL-1573); conditions: data not shown

T1 sequence (Q14643 whole entry): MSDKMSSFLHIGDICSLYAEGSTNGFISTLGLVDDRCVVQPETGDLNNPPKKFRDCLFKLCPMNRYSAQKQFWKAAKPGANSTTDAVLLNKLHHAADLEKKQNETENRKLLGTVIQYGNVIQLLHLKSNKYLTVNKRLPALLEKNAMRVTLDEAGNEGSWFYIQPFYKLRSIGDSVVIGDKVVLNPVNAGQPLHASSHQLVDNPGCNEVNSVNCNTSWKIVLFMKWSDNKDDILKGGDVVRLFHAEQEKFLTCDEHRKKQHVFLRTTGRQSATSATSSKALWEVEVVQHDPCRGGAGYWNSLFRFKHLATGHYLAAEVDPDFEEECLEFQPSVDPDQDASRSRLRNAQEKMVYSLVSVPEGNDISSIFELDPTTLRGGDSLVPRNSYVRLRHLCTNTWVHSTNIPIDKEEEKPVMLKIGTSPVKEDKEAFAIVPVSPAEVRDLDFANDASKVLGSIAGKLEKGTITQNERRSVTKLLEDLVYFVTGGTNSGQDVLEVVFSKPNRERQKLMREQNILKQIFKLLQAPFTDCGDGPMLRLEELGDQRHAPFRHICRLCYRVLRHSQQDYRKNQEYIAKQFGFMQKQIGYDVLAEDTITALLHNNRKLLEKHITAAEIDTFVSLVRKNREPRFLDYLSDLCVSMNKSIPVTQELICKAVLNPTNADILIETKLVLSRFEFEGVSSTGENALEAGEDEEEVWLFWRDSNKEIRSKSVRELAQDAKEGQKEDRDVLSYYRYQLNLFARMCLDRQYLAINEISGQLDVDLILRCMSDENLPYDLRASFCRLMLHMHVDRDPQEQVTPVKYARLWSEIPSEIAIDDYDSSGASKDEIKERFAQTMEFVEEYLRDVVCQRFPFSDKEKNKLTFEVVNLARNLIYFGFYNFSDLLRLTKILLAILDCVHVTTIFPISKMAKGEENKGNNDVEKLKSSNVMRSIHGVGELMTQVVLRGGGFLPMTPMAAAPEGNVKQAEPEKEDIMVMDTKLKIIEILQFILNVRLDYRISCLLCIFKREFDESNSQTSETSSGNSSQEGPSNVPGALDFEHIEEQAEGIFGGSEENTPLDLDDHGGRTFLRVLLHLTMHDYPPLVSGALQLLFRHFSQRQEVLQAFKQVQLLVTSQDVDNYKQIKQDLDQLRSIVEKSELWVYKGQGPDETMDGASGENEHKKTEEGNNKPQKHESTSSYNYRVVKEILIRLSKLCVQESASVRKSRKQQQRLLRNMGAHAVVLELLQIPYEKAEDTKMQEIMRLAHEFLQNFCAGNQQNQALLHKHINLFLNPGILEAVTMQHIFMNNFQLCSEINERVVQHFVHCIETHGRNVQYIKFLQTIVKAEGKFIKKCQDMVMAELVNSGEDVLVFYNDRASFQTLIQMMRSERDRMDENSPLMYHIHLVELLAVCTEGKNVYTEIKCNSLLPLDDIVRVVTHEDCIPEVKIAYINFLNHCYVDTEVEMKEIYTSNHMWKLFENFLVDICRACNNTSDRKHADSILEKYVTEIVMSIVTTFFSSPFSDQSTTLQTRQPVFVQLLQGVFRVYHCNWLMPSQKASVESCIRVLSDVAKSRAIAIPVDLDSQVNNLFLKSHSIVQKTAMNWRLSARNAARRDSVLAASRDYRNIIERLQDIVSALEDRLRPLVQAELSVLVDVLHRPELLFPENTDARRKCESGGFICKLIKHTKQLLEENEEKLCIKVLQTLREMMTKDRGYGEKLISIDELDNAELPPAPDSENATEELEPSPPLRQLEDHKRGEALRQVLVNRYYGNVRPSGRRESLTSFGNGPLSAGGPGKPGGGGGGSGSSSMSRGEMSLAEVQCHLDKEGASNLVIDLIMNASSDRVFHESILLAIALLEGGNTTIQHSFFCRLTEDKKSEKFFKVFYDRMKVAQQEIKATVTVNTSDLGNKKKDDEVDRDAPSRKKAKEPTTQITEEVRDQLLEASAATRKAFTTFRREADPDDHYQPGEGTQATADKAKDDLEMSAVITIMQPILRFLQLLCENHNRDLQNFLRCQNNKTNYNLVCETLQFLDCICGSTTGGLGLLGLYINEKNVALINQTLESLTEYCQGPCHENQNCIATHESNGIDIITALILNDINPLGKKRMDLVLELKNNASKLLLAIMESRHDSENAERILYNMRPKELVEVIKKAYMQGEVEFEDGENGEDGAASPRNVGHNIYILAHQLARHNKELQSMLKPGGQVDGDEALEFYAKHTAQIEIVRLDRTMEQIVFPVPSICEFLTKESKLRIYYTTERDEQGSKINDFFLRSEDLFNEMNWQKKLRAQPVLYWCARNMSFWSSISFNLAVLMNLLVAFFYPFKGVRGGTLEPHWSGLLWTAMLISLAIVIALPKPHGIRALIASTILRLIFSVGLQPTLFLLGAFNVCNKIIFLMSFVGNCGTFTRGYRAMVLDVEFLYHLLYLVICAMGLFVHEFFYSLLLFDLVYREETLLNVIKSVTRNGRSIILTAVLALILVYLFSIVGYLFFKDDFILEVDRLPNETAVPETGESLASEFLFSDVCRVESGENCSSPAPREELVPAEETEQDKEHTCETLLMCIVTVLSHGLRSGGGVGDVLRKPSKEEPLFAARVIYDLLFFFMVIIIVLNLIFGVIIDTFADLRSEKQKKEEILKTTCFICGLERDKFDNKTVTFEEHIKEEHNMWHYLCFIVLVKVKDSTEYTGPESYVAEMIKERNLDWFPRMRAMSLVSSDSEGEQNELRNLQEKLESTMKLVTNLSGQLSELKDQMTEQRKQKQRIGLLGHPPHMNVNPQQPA

NCCOB(c1ccccc1)c1ccccc1 [2-APB, reference compound]
NGF-induced intracellular calcium release [1]: nearly completely inhibited

NCCc1c[nH]c2ccc(O)cc12 [5HT, reference compound]
effect of 5HT on calcium release [2]: stimulates calcium release

Nc1ncnc2c1ncn2[C@@H]1O[C@H](COP(=O)(O)OP(=O)(O)OP(=O)(O)O)[C@@H](O)[C@H]1O [ATP, reference compound]
effect of ATP on cytosolic free calcium [3]: stimulated calcium release and an increase in cytosolic free calcium levels in a dose-dependent manner

CN1CC[C@]23c4c5ccc(O)c4O[C@H]2[C@@H](O)C=C[C@H]3[C@H]1C5 [morphine, reference compound]
paw withdrawal latency [4]: Elevations were significant when compared with saline

NGF: nerve growth factor, stimulant of calcium release
effect of NGF on intracellular calcium release [5]: increased intracellular calcium release

ryanodine [reference compound]
5HT-induced cytoplasmic calcium release, effect of ryanodine ([2]; 10 nM ryanodine): nearly completely inhibited
5HT-induced cytoplasmic calcium release, effect of ryanodine ([2]; dose-dependent, vs vehicle): significantly inhibited

From patent US11911450B2, “Method for managing pain” (UNIVERSITY OF MIAMI, priority 2017, dated 2024)
